As usually defined, the IC50 is the concentration at which inhibition is half-maximal.

Active and inactive are the calls of the source. The rule behind the calls is not given here. A value given as a limit tells only on which side of the number the result lay.

The source of these data is ChEMBL document CHEMBL5241053, “Discovery of novel steroidal-chalcone hybrids with potent and selective activity against triple-negative breast cancer” (Bioorg Med Chem, 2020).

Experiment [1] deals with MDA-MB-231. Kind of experiment: Antiproliferative activity against human MDA-MB-231 cells assessed as cell growth inhibition incubated for 4 hrs by MTT assay. It is filed as functional, cell-based. Conditions: MDA-MB-231, 4 h. (Tetrazolium assays rely on reduction of a dye to a coloured formazan, in cell work by metabolically active cells.)
The test system of another experiment is HT-29. Kind of experiment: Antiproliferative activity against human HT-29 cells assessed as cell growth inhibition incubated for 4 hrs by MTT assay. It is filed as functional, cell-based. Conditions: HT-29, 4 h.
In another experiment the test system is A549. Kind of experiment: Antiproliferative activity against human A549 cells assessed as cell growth inhibition incubated for 4 hrs by MTT assay. The format is functional, cell-based. Conditions: A549, 4 h.
The nature of experiment [2]: Selectivity index, ratio of IC50 for antiproliferative activity against human HT-29 cells to IC50 for antiproliferative activity against human MDA-MB-231 cells. The format is functional.
Experiment [3] in a line: Selectivity index, ratio of IC50 for antiproliferative activity against human A549 cells to IC50 for antiproliferative activity against human MDA-MB-231 cells. It is filed as functional.
Experiment [4] relates to MDA-MB-231. Kind of experiment: Inhibition of colony formation in human MDA-MB-231 cells upto 5 uM for 9 days by crystal violet staining based assay. The format is functional, cell-based. Conditions: time 9.0 day.

In the case of `CC(C)(C)OC(=O)NCCNC(=O)[C@H]1CC[C@H]2[C@@H]3CCC4=CC(=O)C=C[C@]4(C)[C@H]3CC[C@]12C`, the IC50 with MDA-MB-231 [1], with HT-29 and with A549 was more than 40 µM each time.

Consider `C[C@]12CC[C@H]3[C@@H](CCC4=CC(=O)C=C[C@@]43C)[C@@H]1CC[C@@H]2C(=O)NCCNC(=O)/C=C/c1ccc(C(F)(F)F)cc1`, for which the 50% inhibitory concentration (IC50) is 12.5 µM in the experiment with MDA-MB-231 [1], more than 40 µM with HT-29 and 38.1 µM with A549. In addition, the “Ratio IC50” value in experiment [2] is more than 3.2; in experiment [3] it was 3.2.

Turning to `COc1ccccc1/C=C/C(=O)NCCNC(=O)[C@H]1CC[C@H]2[C@@H]3CCC4=CC(=O)C=C[C@]4(C)[C@H]3CC[C@]12C`, the IC50 came out at 0.52 µM in the experiment with MDA-MB-231 [1], 16.8 µM with HT-29 and 29.9 µM in the experiment with A549. Besides, the “Ratio IC50” value in experiment [2] is reported as 32.3; in experiment [3] it was 57.6. In the experiment on MDA-MB-231 [4], the inhibition result is “Active”.

Turning to `O=C(/C=C/c1ccccc1)c1ccccc1` [CHALCONE], the concentration for half-maximal inhibition (IC50) in the experiment on MDA-MB-231 [1] worked out at 42.8 µM; in the experiment with HT-29, 45.9 µM; in the experiment with A549, 69.2 µM.

As to `COc1cc(/C=C/C(=O)NCCNC(=O)[C@H]2CC[C@H]3[C@@H]4CCC5=CC(=O)CC[C@]5(C)[C@H]4CC[C@]23C)cc(OC)c1OC`, the IC50 with MDA-MB-231 [1], in the experiment on HT-29 and in the experiment with A549 was more than 40 µM in each case.

For `C[C@]12CC[C@H]3[C@@H](CCC4=CC(=O)CC[C@@]43C)[C@@H]1CC[C@@H]2C(=O)NCCNC(=O)/C=C/c1ccc([N+](=O)[O-])cc1`, the IC50 in the experiment with MDA-MB-231 [1] is 12 µM; in the experiment on HT-29, 27.8 µM; in the experiment with A549, more than 40 µM. In addition, the “Ratio IC50” value in experiment [2] was 2.3; in experiment [3], more than 3.3.

Regarding `C[C@]12CC[C@H]3[C@@H](CCC4=CC(=O)C=C[C@@]43C)[C@@H]1CC[C@@H]2C(=O)NCCNC(=O)/C=C/c1ccccc1`, the figures for the 50% inhibitory concentration (IC50) in the experiment with MDA-MB-231 [1], in the experiment with HT-29 and in the experiment with A549 were 5.82 µM, 12.7 µM and 26.9 µM, respectively. The “Ratio IC50” value in experiment [2] is listed as 2.2; in experiment [3], 4.6.

As for `C[C@]12CC[C@H]3[C@@H](CCC4=CC(=O)C=C[C@@]43C)[C@@H]1CC[C@@H]2C(=O)NCCNC(=O)/C=C/c1ccc(Cl)cc1`, the IC50 is more than 40 µM in the experiment with MDA-MB-231 [1], more than 40 µM with HT-29 and 38.7 µM in the experiment on A549.

Turning to `C[C@]12CC[C@H]3[C@@H](CCC4=CC(=O)CC[C@@]43C)[C@@H]1CC[C@@H]2C(=O)NCCNC(=O)/C=C/c1ccc(C(F)(F)F)cc1`, the concentration for half-maximal inhibition (IC50) with MDA-MB-231 [1] was 9.21 µM; with HT-29, 34.2 µM; in the experiment with A549, more than 40 µM. Also, the “Ratio IC50” value in experiment [2] was 3.7; in experiment [3], more than 4.3.

For `C[C@]12CC[C@H]3[C@@H](CCC4=CC(=O)CC[C@@]43C)[C@@H]1CC[C@@H]2C(=O)NCCNC(=O)/C=C/c1cccc([N+](=O)[O-])c1`, the values for the IC50 in the experiment on MDA-MB-231 [1], in the experiment with HT-29 and in the experiment on A549 were 11.2 µM, 25.4 µM and 17.7 µM, respectively. Further, the “Ratio IC50” value is reported as 2.3 in experiment [2] and 1.6 in experiment [3].

In the case of `C[C@]12CC[C@H]3[C@@H](CCC4=CC(=O)C=C[C@@]43C)[C@@H]1CC[C@@H]2C(=O)NCCNC(=O)/C=C/c1ccc([N+](=O)[O-])cc1`, the values for the IC50 in the experiment on MDA-MB-231 [1], with HT-29 and in the experiment with A549 were 22.6 µM, more than 40 µM and more than 40 µM, respectively. Besides, the “Ratio IC50” value in experiment [2] and in experiment [3] was more than 1.8 each time.

Consider `C[C@]12CC[C@H]3[C@@H](CCC4=CC(=O)C=C[C@@]43C)[C@@H]1CC[C@@H]2C(=O)NCCNC(=O)/C=C/c1cccc([N+](=O)[O-])c1`, for which the IC50 is 13.7 µM in the experiment with MDA-MB-231 [1], more than 40 µM with HT-29 and 34.2 µM in the experiment on A549. Also, the “Ratio IC50” value in experiment [2] was more than 2.9; in experiment [3], 2.5.

Consider `O=c1[nH]cc(F)c(=O)[nH]1` [FLUOROURACIL], for which the values for the IC50 in the experiment with MDA-MB-231 [1], with HT-29 and in the experiment with A549 were 9.89 µM, 12.7 µM and 14.5 µM, respectively. Moreover, the results for the “Ratio IC50” value in experiment [2] and in experiment [3] were 1.3 and 1.5, respectively.

For the compound `COc1ccc(/C=C/C(=O)NCCNC(=O)[C@H]2CC[C@H]3[C@@H]4CCC5=CC(=O)CC[C@]5(C)[C@H]4CC[C@]23C)cc1OC`, the results for the IC50 in the experiment on MDA-MB-231 [1], with HT-29 and in the experiment with A549 were 15.2 µM, 14.7 µM and 35.1 µM, respectively. In addition, the “Ratio IC50” value in experiment [2] was 1; in experiment [3], 2.3.

For `COc1ccc(/C=C/C(=O)NCCNC(=O)[C@H]2CC[C@H]3[C@@H]4CCC5=CC(=O)C=C[C@]5(C)[C@H]4CC[C@]23C)cc1OC`, the figures for the IC50 with MDA-MB-231 [1], in the experiment with HT-29 and with A549 were 5.75 µM, more than 40 µM and more than 40 µM, respectively. In addition, the “Ratio IC50” value in experiment [2] and in experiment [3] was more than 7 throughout.

In the case of `CC(C)(C)OC(=O)NCCNC(=O)[C@H]1CC[C@H]2[C@@H]3CCC4=CC(=O)CC[C@]4(C)[C@H]3CC[C@]12C`, the concentration for half-maximal inhibition (IC50) with MDA-MB-231 [1] is 24.8 µM; in the experiment on HT-29 it was more than 40 µM; with A549, more than 40 µM.

`C[C@]12CC[C@H]3[C@@H](CCC4=CC(=O)CC[C@@]43C)[C@@H]1CC[C@@H]2C(=O)NCCNC(=O)/C=C/c1ccccc1`: the results for the half-inhibitory concentration (IC50) with MDA-MB-231 [1], in the experiment on HT-29 and with A549 were 10.3 µM, 9.49 µM and 27.3 µM, respectively. In addition, the “Ratio IC50” value in experiment [2] was found to be 1.1; in experiment [3], 2.7.

For the compound `COc1ccc(/C=C/C(=O)NCCNC(=O)[C@H]2CC[C@H]3[C@@H]4CCC5=CC(=O)C=C[C@]5(C)[C@H]4CC[C@]23C)cc1`, the 50% inhibitory concentration (IC50) in the experiment on MDA-MB-231 [1] is 11.5 µM; in the experiment with HT-29, more than 40 µM; in the experiment on A549, 29.6 µM. Moreover, the “Ratio IC50” value in experiment [2] is listed as more than 3.5; in experiment [3], 2.6.

In the case of `COc1cc(/C=C/C(=O)NCCNC(=O)[C@H]2CC[C@H]3[C@@H]4CCC5=CC(=O)C=C[C@]5(C)[C@H]4CC[C@]23C)cc(OC)c1OC`, the IC50 with MDA-MB-231 [1] is more than 40 µM; in the experiment with HT-29, more than 40 µM; with A549, 35.9 µM.

As to `COc1ccc(/C=C/C(=O)NCCNC(=O)[C@H]2CC[C@H]3[C@@H]4CCC5=CC(=O)CC[C@]5(C)[C@H]4CC[C@]23C)cc1`, the results for the IC50 in the experiment on MDA-MB-231 [1], in the experiment on HT-29 and in the experiment with A549 were 22.2 µM, 35 µM and more than 40 µM, respectively. The “Ratio IC50” value in experiment [2] is given as 1.6; in experiment [3] it was more than 1.8.

Turning to `C[C@]12CC[C@H]3[C@@H](CCC4=CC(=O)CC[C@@]43C)[C@@H]1CC[C@@H]2C(=O)NCCNC(=O)/C=C/c1ccc(Cl)cc1`, the IC50 with MDA-MB-231 [1] came to 8.19 µM; in the experiment on HT-29, 15 µM; in the experiment with A549, 35.7 µM. Further, the “Ratio IC50” value was 1.8 in experiment [2] and 4.3 in experiment [3].
